This is an account of results in patent US11447517B2, “Galactoside inhibitor of galectins” (GALECTO BIOTECH AB, priority 2018, dated 2022).

By Kd is commonly meant the constant that tells how readily two partners part at equilibrium. Read a low Kd as a tighter complex.

This assay deals with galectin-3 (Homo sapiens (Human), UniProt P17931). The experiment in a line: Fluorescence anisotropy assay, inhibition of galectin / fluorescein tagged saccharide probe interaction. It counts as binding. Here is the method: Evaluation of Kd Values The affinity of Example 1-71 for galectins were determined by a fluorescence anisotropy assay where the compound was used as an inhibitor of the interaction between galectin and a fluorescein tagged saccharide probe as described Sörme, P., Kahl-Knutsson, B., Huflejt, M., Nilsson, U. J., and Leffler H. (2004) Fluorescence polarization as an analytical tool to evaluate galectin-ligand interactions. Anal. Biochem. 334: 36-47, (Sörme et al., 2004) and Monovalent interactions of Galectin-1 By Salomonsson, Emma; Larumbe, Amaia; Tejler, Johan; Tullberg, Erik; Rydberg, Hanna; Sundin, Anders; Khabut, Areej; Frejd, Torbjorn; Lobsanov, Yuri D.; Rini, James M.; et al, From Biochemistry (2010), 49(44), 9518-9532, (Salomonsson et al., 2010). […] 100 nM albumin was included as a carrier to prevent protein loss at such low concentration of galectin.
galectin-3, sequence (P17931 whole entry): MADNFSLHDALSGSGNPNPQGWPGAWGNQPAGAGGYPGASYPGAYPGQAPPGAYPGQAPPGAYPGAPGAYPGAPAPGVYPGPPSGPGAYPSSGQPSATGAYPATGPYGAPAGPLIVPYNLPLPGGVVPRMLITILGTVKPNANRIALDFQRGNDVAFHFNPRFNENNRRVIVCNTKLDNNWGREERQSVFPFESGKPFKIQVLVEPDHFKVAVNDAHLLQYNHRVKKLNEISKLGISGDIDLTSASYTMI
On the technique in general: Polarisation of emitted light reports the rotation of a fluorescent probe.
Consider `CO[C@@H]1[C@@H](n2cc(-c3cc(F)c(F)c(F)c3)nn2)[C@@H](O)[C@@H](CO)O[C@@H]1Sc1cc(Cl)cnc1-c1nccs1` [Example 31, 5-Chloro-2-(thiazol-2-yl)pyridin-3-yl 3-deoxy-3-[4-(3,4,5-trifluorophenyl)-1H-1,2,3-triazol-1-yl]-2-O-methyl-1-thio-α-D-galactopyranoside], for which the equilibrium dissociation constant (Kd) was 300 nM. Turning to `CO[C@@H]1[C@@H](n2cc(-c3cc(F)c(F)c(F)c3)nn2)[C@@H](O)[C@@H](CO)O[C@@H]1Sc1cc(-c2nccs2)cnc1-c1nccs1` [Example 32, 2,5-Bis(thiazol-2-yl)pyridin-3-yl 3-deoxy-3-[4-(3,4,5-trifluorophenyl)-1H-1,2,3-triazol-1-yl]-2-O-methyl-1-thio-α-D-galactopyranoside], the Kd came to 210 nM. Then `CO[C@@H]1[C@@H](n2cc(-c3cc(F)c(Cl)c(F)c3)nn2)[C@@H](O)[C@@H](CO)O[C@@H]1Sc1cncc(Cl)c1` [Example 33, 5-Chloropyridin-3-yl 3-[4-(4-chloro-3,5-difluorophenyl)-1H-1,2,3-triazol-1-yl]-3-deoxy-2-O-methyl-1-thio-α-D-galactopyranoside], with 31 nM; and `CO[C@@H]1[C@@H](n2cc(-c3cc(F)c(Cl)c(F)c3)nn2)[C@@H](O)[C@@H](CO)O[C@@H]1Sc1cncc(Br)c1` [Example 34, 5-Bromopyridin-3-yl 3-[4-(4-chloro-3,5-difluorophenyl)-1H-1,2,3-triazol-1-yl]-3-deoxy-2-O-methyl-1-thio-α-D-galactopyranoside], with 21 nM. For `CO[C@@H]1[C@@H](n2cc(-c3ccc(Cl)c(F)c3)nn2)[C@@H](O)[C@@H](CO)O[C@@H]1Sc1cncc(Cl)c1` [Example 37, 5-Chloropyridin-3-yl 3-[4-(4-chloro-3-fluorophenyl)-1H-1,2,3-triazol-1-yl]-3-deoxy-2-O-methyl-1-thio-α-D-galactopyranoside], the Kd was found to be 42 nM.

On to `CO[C@@H]1[C@@H](n2cc(-c3ccc(Cl)c(F)c3)nn2)[C@@H](O)[C@@H](CO)O[C@@H]1Sc1cncc(Br)c1` [Example 38, 5-Bromopyridin-3-yl 3-[4-(4-chloro-3-fluorophenyl)-1H-1,2,3-triazol-1-yl]-3-deoxy-2-O-methyl-1-thio-α-D-galactopyranoside], for which the affinity, expressed as Kd, was 62 nM.

`CO[C@@H]1[C@@H](n2cc(-c3cc(F)c(Cl)c(F)c3)nn2)[C@@H](O)[C@@H](CO)O[C@@H]1Sc1cnc(C(F)(F)F)c(C)c1` [Example 39, 6-Trifluoromethyl-5-methylpyridin-3-yl 3-[4-(4-chloro-3,5-difluorophenyl)-1H-1,2,3-triazol-1-yl]-3-deoxy-2-O-methyl-1-thio-α-D-galactopyranoside] gave a Kd of 280 nM. For the compound `CO[C@@H]1[C@@H](n2cc(-c3cc(F)c(Cl)c(F)c3)nn2)[C@@H](O)[C@@H](CO)O[C@@H]1Sc1cc(Cl)ccc1C(=O)N1CCC1` [Example 40, 2-(N-azetidinyl-carbonyl)-5-chlorophenyl 3-[4-(4-chloro-3,5-difluorophenyl)-1H-1,2,3-triazol-1-yl]-3-deoxy-2-O-methyl-1-thio-α-D-galactopyranoside], the Kd worked out at 15 nM. In turn, `CO[C@@H]1[C@@H](n2cc(-c3ccc(C)c(F)c3)nn2)[C@@H](O)[C@@H](CO)O[C@@H]1Sc1cc(Cl)ccc1C(=O)N1CCC1` [Example 41, 2-(N-azetidinyl-carbonyl)-5-chlorophenyl 3-deoxy-3-[4-(3-fluoro-4-methylphenyl)-1H-1,2,3-triazol-1-yl]-2-O-methyl-1-thio-α-D-galactopyranoside] yielded a Kd of 7 nM. `CO[C@@H]1[C@@H](n2cc(-c3cc(F)c(F)c(F)c3)nn2)[C@@H](O)[C@@H](CO)O[C@@H]1Sc1cncc(Cl)c1` [Example 42, 5-Chloropyridin-3-yl 3-deoxy-3-[4-(3,4,5-trifluorophenyl)-1H-1,2,3-triazol-1-yl]-2-O-methyl-1-thio-α-D-galactopyranoside]: the Kd was 29 nM.

`CO[C@@H]1[C@@H](n2cc(-c3ccc(Cl)c(C)n3)nn2)[C@@H](O)[C@@H](CO)O[C@@H]1Sc1cncc(Cl)c1` [Example 44, 5-Chloropyridin-3-yl 3-[4-(5-chloro-6-methylpyridin-2-yl)-1H-1,2,3-triazol-1-yl]-3-deoxy-2-O-methyl-1-thio-α-D-galactopyranoside] gave a Kd of 880 nM. On to `CO[C@@H]1[C@@H](n2cc(-c3cc(F)c(F)c(F)c3)nn2)[C@@H](O)[C@@H](CO)O[C@@H]1Sc1cnc(C#N)c(Cl)c1` [Example 45, 3-Chloro-2-cyanopyridin-5-yl 3-deoxy-3-[4-(3,4,5-trifluorophenyl)-1H-1,2,3-triazol-1-yl]-2-O-methyl-1-thio-α-D-galactopyranoside], for which the Kd turned out to be 65 nM. As to `CO[C@@H]1[C@@H](n2cc(-c3cc(F)c(F)c(F)c3)nn2)[C@@H](O)[C@@H](CO)O[C@@H]1Sc1cc(Cl)cnc1C#N` [Example 46, 5-Chloro-2-cyanopyridin-3-yl 3-deoxy-3-[4-(3,4,5-trifluorophenyl)-1H-1,2,3-triazol-1-yl]-2-O-methyl-1-thio-α-D-galactopyranoside], the dissociation constant (Kd) was found to be 35 nM.

`CO[C@@H]1[C@@H](n2cc(-c3cc(F)c(Cl)c(F)c3)nn2)[C@@H](O)[C@@H](CO)O[C@@H]1Sc1cc(Cl)cnc1C#N` [Example 47, 5-Chloro-2-cyanopyridin-3-yl 3-[4-(4-chloro-3,5-difluorophenyl)-1H-1,2,3-triazol-1-yl]-3-deoxy-2-O-methyl-1-thio-α-D-galactopyranoside] had a dissociation constant (Kd) of 34 nM. `CO[C@@H]1[C@@H](n2cc(-c3ccc(Cl)c(F)c3)nn2)[C@@H](O)[C@@H](CO)O[C@@H]1Sc1cc(Cl)cnc1C#N` [Example 48, 5-Chloro-2-cyanopyridin-3-yl 3-[4-(4-chloro-3-fluorophenyl)-1H-1,2,3-triazol-1-yl]-3-deoxy-2-O-methyl-1-thio-α-D-galactopyranoside] showed a Kd of 31 nM.

For the compound `CO[C@@H]1[C@@H](n2cc(-c3cc(F)c(Cl)c(F)c3)nn2)[C@@H](O)[C@@H](CO)O[C@@H]1Sc1cc(C)cnc1C#N` [Example 49, 2-Cyano-5-methylpyridin-3-yl 3-[4-(4-chloro-3,5-difluorophenyl)-1H-1,2,3-triazol-1-yl]-3-deoxy-2-O-methyl-1-thio-α-D-galactopyranoside], the dissociation constant Kd was 50 nM.

For the compound `CO[C@@H]1[C@@H](n2cc(-c3cc(F)c(Cl)c(F)c3)nn2)[C@@H](O)[C@@H](CO)O[C@@H]1Sc1cc(Br)cnc1C#N` [Example 50, 5-Bromo-2-cyanopyridin-3-yl 3-[4-(4-chloro-3,5-difluorophenyl)-1H-1,2,3-triazol-1-yl]-3-deoxy-2-O-methyl-1-thio-α-D-galactopyranoside], binding was put at a Kd of 23 nM.

The compound `CO[C@@H]1[C@@H](n2cc(-c3ccc(Cl)c(F)c3)nn2)[C@@H](O)[C@@H](CO)O[C@@H]1Sc1cc(Br)cnc1C#N` [Example 51, 5-Bromo-2-cyanopyridin-3-yl 3-[4-(4-chloro-3-fluorophenyl)-1H-1,2,3-triazol-1-yl]-3-deoxy-2-O-methyl-1-thio-α-D-galactopyranoside] returned an equilibrium dissociation constant (Kd) of 37 nM. `C#Cc1cncc(S[C@H]2O[C@H](CO)[C@H](O)[C@H](n3cc(-c4cc(F)c(Cl)c(F)c4)nn3)[C@H]2OC)c1` [Example 54, 5-Ethynylpyridin-3-yl 3-[4-(4-chloro-3,5-difluorophenyl)-1H-1,2,3-triazol-1-yl]-3-deoxy-2-O-methyl-1-thio-α-D-galactopyranoside] yielded an equilibrium dissociation constant (Kd) of 35 nM.
